Values after ≈ are worked out from the molar mass of the structure shown. Values belong to the compound of their own block, whether it stands above or below them.
Columns and labels:
[1] = Inhibition of recombinant Brugia malayi TMK using dTMP as substrate by pyruvate kinase/lactate dehydrogenase coupled assay
[2] = Therapeutic index, ratio of CC50 for monkey VERO cells to IC50 for Brugia malayi microfilariae; type: cell-based; details: for selectivity ratio: Vero cells, read-out: Ratio CC50/IC50
[3] = Therapeutic index, ratio of CC50 for monkey VERO cells to IC50 for adult Brugia malayi; type: cell-based; details: for selectivity ratio: Vero cells, read-out: Ratio CC50/IC50
Brugia malayi [4] = assay: Antifilarial activity against Brugia malayi microfilariae assessed as motility reduction at 1.25 uM/ml after 1 hr by microscopic analysis; type: functional
Brugia malayi [5] = assay: Antifilarial activity against adult Brugia malayi assessed as reduction in viability at 1.25 uM/ml after 24 to 48 hrs by MTT assay; type: functional
Brugia malayi [6] = assay: Antifilarial activity against adult Brugia malayi assessed as motility reduction at 10 uM/ml after 1 hr by microscopic analysis; type: functional
Brugia malayi [7] = assay: Antifilarial activity against adult Brugia malayi assessed as motility reduction at 5 uM/ml after 1 hr by microscopic analysis; type: functional
Brugia malayi [8] = assay: Antifilarial activity against adult Brugia malayi assessed as reduction in viability at 10 uM/ml after 24 to 48 hrs by MTT assay; type: functional
Brugia malayi [9] = assay: Antifilarial activity against adult Brugia malayi assessed as motility reduction at 1.25 uM/ml after 1 hr by microscopic analysis; type: functional
Brugia malayi [10] = assay: Antifilarial activity against adult Brugia malayi assessed as motility reduction after 1 hr by microscopic analysis; type: functional, organism-based
Brugia malayi [11] = assay: Antifilarial activity against Brugia malayi microfilariae assessed as motility reduction at 5 uM/ml after 1 hr by microscopic analysis; type: functional
Brugia malayi [12] = assay: Antifilarial activity against adult Brugia malayi assessed as reduction in viability at 2.5 uM/ml after 24 to 48 hrs by MTT assay; type: functional
Brugia malayi [13] = assay: Antifilarial activity against Brugia malayi microfilariae assessed as motility reduction at 10 uM/ml after 1 hr by microscopic analysis; type: functional
Brugia malayi [14] = assay: Antifilarial activity against adult Brugia malayi assessed as reduction in viability at 5 uM/ml after 24 to 48 hrs by MTT assay; type: functional
[15] = Cytotoxicity against African green monkey Vero cells after 72 hrs by resazurin dye-based fluorometric analysis; type: cell-based; details: chlorocebus sabaeus
Brugia malayi [16] = assay: Antifilarial activity against adult Brugia malayi assessed as motility reduction at 2.5 uM/ml after 1 hr by microscopic analysis; type: functional
Brugia malayi [17] = assay: Antifilarial activity against Brugia malayi microfilariae assessed as motility reduction at 2.5 uM/ml after 1 hr by microscopic analysis; type: functional
Brugia malayi [18] = assay: Antifilarial activity against Brugia malayi microfilariae assessed as motility reduction after 1 hr by microscopic analysis; type: functional, organism-based
Brugia malayi [19] = assay: Antifilarial activity against adult Brugia malayi assessed as reduction in viability at 0.625 uM/ml after 24 to 48 hrs by MTT assay; type: functional
Brugia malayi [20] = assay: Antifilarial activity against Brugia malayi microfilariae assessed as motility reduction at 0.625 uM/ml after 1 hr by microscopic analysis; type: functional
Brugia malayi [21] = assay: Antifilarial activity against adult Brugia malayi assessed as motility reduction at 0.625 uM/ml after 1 hr by microscopic analysis; type: functional
Brugia malayi [22] = assay: Antifilarial activity against adult Brugia malayi assessed as motility reduction at 0.3 uM/ml after 1 hr by microscopic analysis; type: functional, organism-based
Brugia malayi [23] = assay: Antifilarial activity against adult Brugia malayi assessed as reduction in viability at 0.3 uM/ml after 24 to 48 hrs by MTT assay; type: functional, organism-based
Brugia malayi [24] = assay: Antifilarial activity against Brugia malayi microfilariae assessed as motility reduction at 0.3 uM/ml after 1 hr by microscopic analysis; type: functional, organism-based
Brugia malayi [25] = assay: Antifilarial activity against adult Brugia malayi assessed as motility reduction at 0.15 uM/ml after 1 hr by microscopic analysis; type: functional, organism-based
Brugia malayi [26] = assay: Antifilarial activity against adult Brugia malayi assessed as reduction in viability at 0.6 uM/ml after 24 to 48 hrs by MTT assay; type: functional, organism-based
Brugia malayi [27] = assay: Antifilarial activity against adult Brugia malayi assessed as reduction in viability at 0.15 uM/ml after 24 to 48 hrs by MTT assay; type: functional, organism-based
Brugia malayi [28] = assay: Antifilarial activity against Brugia malayi microfilariae assessed as motility reduction at 0.6 uM/ml after 1 hr by microscopic analysis; type: functional, organism-based
Brugia malayi [29] = assay: Antifilarial activity against adult Brugia malayi assessed as motility reduction at 0.6 uM/ml after 1 hr by microscopic analysis; type: functional, organism-based
Brugia malayi [30] = assay: Antifilarial activity against Brugia malayi microfilariae assessed as motility reduction at 0.15 uM/ml after 1 hr by microscopic analysis; type: functional, organism-based

Compound: IVERMECTIN [listing 1 of 2 here]
Ratio CC50/IC50 ([2]; vero): 13.28 | Ratio CC50/IC50 ([3]; vero): 29.5

Compound: Cc1cc(/C=N/Nc2nc3ccccc3s2)cc(/C=C/C(=O)c2ccccc2)c1O
Ki [1]: 16.5 µM

Compound: CCc1cc(/C=N/Nc2nc3ccccc3s2)cc(/C=C/C(=O)c2ccc(OC)cc2)c1O
Ki [1]: 30.4 µM

Compound: CC(C)c1cc(/C=N/Nc2nc3ccccc3s2)cc(/C=C/C(=O)c2ccc(F)cc2)c1O
Ki [1]: 21.6 µM

Compound: CCCc1cc(/C=N/Nc2nc3ccccc3s2)cc(/C=C/C(=O)c2ccc(OC)c(OC)c2)c1O
Ki [1]: 27.1 µM

Compound: Cc1ccc(C(=O)/C=C/c2cc(/C=N/Nc3nc4ccccc4s3)cc(C(C)(C)C)c2O)cc1
Ki [1]: 4.69 µM

Compound: CCC(C)c1cc(/C=N/Nc2nc3ccccc3s2)cc(/C=C/C(=O)c2ccc(F)cc2)c1O (stereo not drawn)
Ki [1]: 7.91 µM

Compound: CC(C)c1cc(/C=N/Nc2nc3ccccc3s2)cc(/C=C/C(=O)c2cccs2)c1O
Ki [1]: 2.02 µM | inhibition at 1.25 µM (Brugia malayi [4]): 50% | inhibition at 1.25 µM (Brugia malayi [5]): 9.3% | selectivity ratio [2]: 58.5 | inhibition at 5 µM (Brugia malayi [7]): 100% | inhibition at 1.25 µM (Brugia malayi [9]): 1% | IC50 (Brugia malayi [10]): 2.12 µM | MIC (Brugia malayi [10]): 5 µM (≈ 2.24 µg/mL) | inhibition at 5 µM (Brugia malayi [11]): 100% | inhibition at 2.5 µM (Brugia malayi [12]): 40.3% | inhibition at 0.625 µM (Brugia malayi [19]): 8.7% | inhibition at 5 µM (Brugia malayi [14]): 85% | inhibition at 0.625 µM (Brugia malayi [20]): 1% | CC50 at 72 h [15]: 95.3 µM | inhibition at 0.625 µM (Brugia malayi [21]): 1% | inhibition at 2.5 µM (Brugia malayi [16]): 50% | inhibition at 2.5 µM (Brugia malayi [17]): 75% | IC50 (Brugia malayi [18]): 1.63 µM | MIC (Brugia malayi [18]): 5 µM (≈ 2.24 µg/mL) | selectivity ratio [3]: 44.9

Compound: COc1ccc(C(=O)/C=C/c2cc(/C=N/Nc3nc4ccccc4s3)cc(C(C)C)c2O)cc1OC
Ki [1]: 50.6 µM

Compound: CC(C)c1cc(/C=N/Nc2nc3ccccc3s2)cc(/C=C/C(=O)c2ccc(Cl)cc2)c1O
Ki [1]: 22.8 µM

More lines, main results first:

Ki [1]: 3.17 µM
Compound: CC(C)(C)c1cc(/C=N/Nc2nc3ccccc3s2)cc(/C=C/C(=O)c2ccc(F)cc2)c1O

Ki [1]: 3.09 µM
Compound: COc1ccc(C(=O)/C=C/c2cc(/C=N/Nc3nc4ccccc4s3)cc(C(C)C)c2O)cc1

Ki [1]: 4.89 µM
Compound: CCC(C)c1cc(/C=N/Nc2nc3ccccc3s2)cc(/C=C/C(=O)c2ccc(OC)cc2)c1O (stereo not drawn)

Ki [1]: 2.49 µM | IC50 (Brugia malayi [10]): 4.34 µM | MIC (Brugia malayi [10]): 10 µM (≈ 4.28 µg/mL) | IC50 (Brugia malayi [18]): 2.64 µM | MIC (Brugia malayi [18]): 10 µM (≈ 4.28 µg/mL)
Compound: CCc1cc(/C=N/Nc2nc3ccccc3s2)cc(/C=C/C(=O)c2ccccc2)c1O
inhibition at 1.25 µM (Brugia malayi [4]): 1% | inhibition at 1.25 µM (Brugia malayi [5]): 10.5% | inhibition at 10 µM (Brugia malayi [6]): 100% | selectivity ratio [2]: 18.4 | inhibition at 5 µM (Brugia malayi [7]): 50% | inhibition at 10 µM (Brugia malayi [8]): 90.4% | inhibition at 1.25 µM (Brugia malayi [9]): 1% | inhibition at 5 µM (Brugia malayi [11]): 75% | inhibition at 2.5 µM (Brugia malayi [12]): 30% | inhibition at 10 µM (Brugia malayi [13]): 100% | inhibition at 5 µM (Brugia malayi [14]): 48% | CC50 at 72 h [15]: 48.6 µM | inhibition at 2.5 µM (Brugia malayi [16]): 1% | inhibition at 2.5 µM (Brugia malayi [17]): 75% | selectivity ratio [3]: 11.2

Ki [1]: 26.6 µM
Compound: CCCc1cc(/C=N/Nc2nc3ccccc3s2)cc(/C=C/C(=O)c2ccc(Cl)cc2)c1O

Ki [1]: 20.3 µM
Compound: CC(C)(C)c1cc(/C=N/Nc2nc3ccccc3s2)cc(/C=C/C(=O)c2ccccc2)c1O

MIC (Brugia malayi [10]): 8.9 µM | MIC (Brugia malayi [18]): 10 µM
Compound: IVERMECTIN [listing 2 of 2 here]
inhibition (Brugia malayi [4]): 75% | inhibition (Brugia malayi [5]): 34.9% | inhibition (Brugia malayi [6]): 100% | inhibition (Brugia malayi [22]): 50% | inhibition (Brugia malayi [7]): 100% | inhibition (Brugia malayi [8]): 76% | inhibition (Brugia malayi [9]): 100% | inhibition (Brugia malayi [11]): 75% | inhibition (Brugia malayi [23]): 10.7% | inhibition (Brugia malayi [12]): 50.5% | inhibition (Brugia malayi [24]): 0% | inhibition (Brugia malayi [13]): 100% | inhibition (Brugia malayi [14]): 62.9% | inhibition (Brugia malayi [25]): 1% | inhibition (Brugia malayi [26]): 22.9% | inhibition (Brugia malayi [16]): 100% | inhibition (Brugia malayi [27]): 15.7% | inhibition (Brugia malayi [17]): 75% | inhibition (Brugia malayi [28]): 50% | inhibition (Brugia malayi [29]): 100% | inhibition (Brugia malayi [30]): 0%
